The source of these data is patent publication US20200369728A1, “PEPTIDOMIMETIC MACROCYCLES AND USES THEREOF” (Aileron Therapeutics, Inc., priority 2015, published 2020).

One assay relates to Caspase 3. Kind of assay: Caspase 3 detection assay in SJSA1 cells. The class given is cell-based. The following applies: SJSA1, 48 h, Caspase 3 activation over DMSO-treated cells.
Another assay deals with SJSA-1 cells. The experiment in a line: Cell lysis by peptidomimetic macrocycles (LDH release). As to conditions: SJSA-1, 1 h. The format is cell-based. In outline:
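Membrane lysis measured as supernatant LDH after a 1 h, 37 °C exposure of SJSA-1 cells, held in RPMI with 1% FBS, to macrocycles at final 6.25-50 μM with 0.5% DMSO. Lytic references were 10 μM melittin and 1% Triton X-100; DMSO alone served as non-lytic control.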
Background: LDH leaks from cells whose membrane has failed.

Bridge positions count the residues as written; N and C are the ends. Square brackets hold non-standard residues; d marks the D form. Peptide text beside a SMILES is read from it. R8 = C=CCCCCCC[C@@](C)(N)C(=O)O; S5 = C=CCCC[C@](C)(N)C(=O)O

As for `CC(=O)N[C@@H](CC(C)C)C(=O)N[C@H](C(=O)N[C@@H](Cc1ccccc1)C(=O)N[C@]1(C)CCCCCCC=CCCC[C@@](C)(C(=O)N[C@@H](CO)C(=O)N[C@@H](C)C(=O)N[C@@H](CO)C(N)=O)NC(=O)[C@H](CC(C)C)NC(=O)[C@H](CCC(N)=O)NC(=O)[C@H](C)NC(=O)[C@H](Cc2c[nH]c3ccccc23)NC(=O)[C@H](Cc2ccc(O)cc2)NC(=O)[C@H](C(C)C)NC1=O)[C@@H](C)O` (single isomer, unassigned) [compound 144], in the assay with Caspase 3, the “caspase 0.3 μM” value came out at 1, the “caspase 3 μM” value amounted to 4, the “caspase 10 μM” value is recorded as 10 and the “caspase 30 μM” value is given as 16. Moreover, in the assay on SJSA-1 cells, the “6.25 μM % Lysed cells (1 h LDH)” value amounted to 1%, the “25 μM % Lysed cells (1 h LDH)” value is reported as −1% and the “50 μM % Lysed cells (1 h LDH)” value stood at 2%.

For the compound `CC(=O)N[C@@H](CC(C)C)C(=O)N[C@H](C(=O)N[C@@H](Cc1ccccc1)C(=O)N[C@]1(C)CCCCCCC=CCCC[C@@](C)(C(=O)N[C@@H](C)C(=O)N[C@@H](C)C(=O)N[C@@H](Cc2ccccc2)C(=O)N[C@H](C)C(N)=O)NC(=O)[C@H](CC(C)C)NC(=O)[C@H](CCC(N)=O)NC(=O)[C@H](C)NC(=O)[C@H](Cc2c[nH]c3ccccc23)NC(=O)[C@H](Cc2ccc(O)cc2)NC(=O)[C@H](CCC(=O)O)NC1=O)[C@@H](C)O` (single isomer, unassigned) [compound 218], in the assay with Caspase 3, the “caspase 0.3 μM” value turned out to be 1, the “caspase 3 μM” value came to 2, the “caspase 10 μM” value is 8 and the “caspase 30 μM” value was found to be 18. In addition, in the assay with SJSA-1 cells, the “6.25 μM % Lysed cells (1 h LDH)” value stood at 0%, the “25 μM % Lysed cells (1 h LDH)” value was −4% and the “50 μM % Lysed cells (1 h LDH)” value is 1%.

`CC[C@H](C)[C@H](NC(=O)[C@H](C)NC(=O)[C@H](CO)NC(=O)[C@]1(C)CCCC=CCCCCCC[C@@](C)(NC(=O)[C@H](Cc2ccccc2)NC(=O)[C@@H](NC(=O)[C@H](CC(C)C)NC(C)=O)[C@@H](C)O)C(=O)N[C@@H](C)C(=O)N[C@@H](Cc2ccc(O)cc2)C(=O)N[C@@H](Cc2c[nH]c3ccccc23)C(=O)N[C@@H](C)C(=O)N[C@@H](CCC(N)=O)C(=O)N[C@@H](CC(C)C)C(=O)N1)C(N)=O` [compound 8] (Ac-LTF[R8]AYWAQL[S5]SAI-NH2; staple 4-11): in the assay on Caspase 3, the “caspase 3 μM” value stood at 1, the “caspase 10 μM” value was found to be 19 and the “caspase 30 μM” value worked out at 25. Also, in the assay with SJSA-1 cells, the “6.25 μM % Lysed cells (1 h LDH)” value was −1%, the “25 μM % Lysed cells (1 h LDH)” value turned out to be 1% and the “50 μM % Lysed cells (1 h LDH)” value is reported as 1%.

For the compound `CC(=O)N[C@@H](CC(C)C)C(=O)N[C@H](C(=O)N[C@@H](Cc1ccccc1)C(=O)N[C@]1(C)CCCCCCC=CCCC[C@@](C)(C(=O)N[C@@H](C)C(=O)N[C@@H](C)C(=O)N[C@H](C(=O)N[C@H](C)C(N)=O)C(C)C)NC(=O)[C@H](CC(C)C)NC(=O)[C@H](CCC(N)=O)NC(=O)[C@H](C)NC(=O)[C@H](Cc2c[nH]c3ccccc23)NC(=O)[C@H](Cc2ccc(O)cc2)NC(=O)[C@H](CCC(=O)O)NC1=O)[C@@H](C)O` (single isomer, unassigned) [compound 221], in the assay with Caspase 3, the “caspase 0.3 μM” value came to 1, the “caspase 3 μM” value was found to be 3, the “caspase 10 μM” value is on record as 6 and the “caspase 30 μM” value worked out at 12. Besides, in the assay on SJSA-1 cells, the “6.25 μM % Lysed cells (1 h LDH)” value came out at 3%, the “25 μM % Lysed cells (1 h LDH)” value is recorded as 3% and the “50 μM % Lysed cells (1 h LDH)” value is given as 11%.

Consider `CC[C@H](C)[C@H](NC(C)=O)C(=O)N[C@H](C(=O)N[C@@H](Cc1ccccc1)C(=O)N[C@]1(C)CCCCCCC=CCCC[C@@](C)(C(=O)N[C@@H](C)C(=O)N[C@@H](C)C(=O)N[C@H](C(=O)N[C@H](C)C(N)=O)[C@@H](C)CC)NC(=O)[C@H](CC(C)C)NC(=O)[C@H](CCC(N)=O)NC(=O)[C@H](C(C)C)NC(=O)[C@H](Cc2c[nH]c3ccccc23)NC(=O)[C@H](Cc2ccc(O)cc2)NC(=O)[C@H](Cc2ccccc2)NC1=O)[C@@H](C)O` [compound 177] (Ac-ITF[R8]FYWVQL[S5]AAI[dA]-NH2; staple 4-11), for which, in the assay on Caspase 3, the “caspase 0.3 μM” value is reported as 1, the “caspase 3 μM” value is on record as 1, the “caspase 10 μM” value worked out at 8 and the “caspase 30 μM” value stood at 20. Further, in the assay with SJSA-1 cells, the “6.25 μM % Lysed cells (1 h LDH)” value was −1%, the “25 μM % Lysed cells (1 h LDH)” value stood at 0% and the “50 μM % Lysed cells (1 h LDH)” value is recorded as 1%.

Take `CC(=O)N[C@@H](CC(C)C)C(=O)N[C@H](C(=O)N[C@@H](Cc1ccccc1)C(=O)N[C@]1(C)CCCCCCC=CCCC[C@@](C)(C(=O)N[C@@H](C)C(=O)N[C@@H](Cc2c[nH]cn2)C(=O)N[C@@H](Cc2ccccc2)C(=O)N[C@@H](C)C(N)=O)NC(=O)[C@H](CC(C)C)NC(=O)[C@H](CCC(N)=O)NC(=O)[C@H](C)NC(=O)[C@H](Cc2c[nH]c3ccccc23)NC(=O)[C@H](Cc2c[nH]cn2)NC(=O)[C@H](C)NC1=O)[C@@H](C)O` [compound 183] (Ac-LTF[R8]AHWAQL[S5]AHFA-NH2; staple 4-11): in the assay on Caspase 3, the “caspase 0.3 μM” value came to 1, the “caspase 3 μM” value turned out to be 1, the “caspase 10 μM” value is on record as 4 and the “caspase 30 μM” value was found to be 8. In the assay on SJSA-1 cells, the “6.25 μM % Lysed cells (1 h LDH)” value came out at 2%, the “25 μM % Lysed cells (1 h LDH)” value is on record as 0% and the “50 μM % Lysed cells (1 h LDH)” value was 3%.

For `CC[C@H](C)[C@H](NC(=O)[C@H](C)NC(=O)[C@H](C)NC(=O)[C@]1(C)CCCC=CCCCCCC[C@@](C)(NC(=O)[C@H](Cc2ccccc2)NC(=O)[C@@H](NC(=O)[C@H](CC(C)C)NC(C)=O)[C@@H](C)O)C(=O)N[C@@H](C)C(=O)N[C@@H](Cc2ccc(O)cc2)C(=O)N[C@@H](Cc2c[nH]c3ccccc23)C(=O)N[C@@H](C)C(=O)N[C@@H](C)C(=O)N[C@@H](CC(C)C)C(=O)N1)C(=O)N[C@@H](C(N)=O)C(C)C` (single isomer, unassigned) [compound 77], in the assay with Caspase 3, the “caspase 0.3 μM” value was determined as 1, the “caspase 3 μM” value turned out to be 2, the “caspase 10 μM” value is listed as 19 and the “caspase 30 μM” value is given as 23. Besides, in the assay on SJSA-1 cells, the “6.25 μM % Lysed cells (1 h LDH)” value is −2%, the “25 μM % Lysed cells (1 h LDH)” value was 1% and the “50 μM % Lysed cells (1 h LDH)” value is listed as −1%.

Regarding `CSCC[C@H](NC(=O)[C@H](C)NC(=O)[C@H](C)NC(=O)[C@]1(C)CCCC=CCCCCCC[C@@](C)(NC(=O)[C@H](Cc2ccccc2)NC(=O)[C@@H](NC(=O)[C@H](CC(C)C)NC(C)=O)[C@@H](C)O)C(=O)N[C@@H](C)C(=O)N[C@@H](Cc2ccc(O)cc2)C(=O)N[C@@H](Cc2c[nH]c3ccccc23)C(=O)N[C@@H](C)C(=O)N[C@@H](C)C(=O)N[C@@H](CC(C)C)C(=O)N1)C(=O)N[C@H](C)C(N)=O` [compound 72] (Ac-LTF[R8]AYWAAL[S5]AAM[dA]-NH2; staple 4-11), in the assay on Caspase 3, the “caspase 0.3 μM” value was determined as 1, the “caspase 3 μM” value came out at 1, the “caspase 10 μM” value is recorded as 4 and the “caspase 30 μM” value was determined as 10. Besides, in the assay on SJSA-1 cells, the “6.25 μM % Lysed cells (1 h LDH)” value amounted to 2%, the “25 μM % Lysed cells (1 h LDH)” value is 0% and the “50 μM % Lysed cells (1 h LDH)” value is reported as 3%.

Take `CCCC[C@H](NC(=O)[C@H](C)NC(=O)[C@H](C)NC(=O)[C@]1(C)CCCC=CCCCCCC[C@@](C)(NC(=O)[C@H](Cc2ccccc2)NC(=O)[C@@H](NC(=O)[C@H](CC(C)C)NC(C)=O)[C@@H](C)O)C(=O)N[C@@H](C)C(=O)N[C@@H](Cc2ccc(O)cc2)C(=O)N[C@@H](Cc2c[nH]c3ccccc23)C(=O)N[C@@H](C)C(=O)N[C@@H](C)C(=O)N[C@@H](CC(C)C)C(=O)N1)C(=O)N[C@@H](C(N)=O)C(C)C` (single isomer, unassigned) [compound 80]: in the assay with Caspase 3, the “caspase 0.3 μM” value is recorded as 1, the “caspase 3 μM” value was determined as 2, the “caspase 10 μM” value is 13 and the “caspase 30 μM” value is 20. Further, in the assay on SJSA-1 cells, the “6.25 μM % Lysed cells (1 h LDH)” value is on record as 0%, the “25 μM % Lysed cells (1 h LDH)” value turned out to be 1% and the “50 μM % Lysed cells (1 h LDH)” value stood at 5%.

With `CC[C@H](C)[C@H](NC(=O)[C@H](C)NC(=O)[C@H](C)NC(=O)[C@]1(C)CCCC=CCCCCCC[C@@](C)(NC(=O)[C@H](Cc2ccccc2)NC(=O)[C@@H](NC(=O)[C@H](CC(C)C)NC(C)=O)[C@@H](C)O)C(=O)N[C@@H](C)C(=O)N[C@@H](Cc2c[nH]cn2)C(=O)N[C@@H](Cc2c[nH]c3ccccc23)C(=O)N[C@@H](C)C(=O)N[C@@H](CCC(N)=O)C(=O)N[C@@H](CC(C)C)C(=O)N1)C(=O)N[C@H](C)C(N)=O` [compound 170] (Ac-LTF[R8]AHWAQL[S5]AAI[dA]-NH2; staple 4-11), in the assay with Caspase 3, the “caspase 0.3 μM” value is 1, the “caspase 3 μM” value came to 1, the “caspase 10 μM” value is reported as 16 and the “caspase 30 μM” value is 20. In addition, in the assay on SJSA-1 cells, the “6.25 μM % Lysed cells (1 h LDH)” value is 2%, the “25 μM % Lysed cells (1 h LDH)” value was 1% and the “50 μM % Lysed cells (1 h LDH)” value is on record as −1%.

Consider `CC(=O)N[C@@H](CCC(=O)O)C(=O)N[C@H](C(=O)N[C@@H](Cc1ccccc1)C(=O)N[C@]1(C)CCCCCCC=CCCC[C@@](C)(C(=O)N[C@@H](CO)C(=O)N[C@H](C(=O)N[C@@H](CO)C(N)=O)C(C)C)NC(=O)[C@H](CC(C)C)NC(=O)[C@H](CCC(N)=O)NC(=O)[C@H](C)NC(=O)[C@H](Cc2c[nH]c3ccccc23)NC(=O)[C@H](Cc2ccc(O)cc2)NC(=O)[C@H](C(C)C)NC1=O)[C@@H](C)O` [compound 130] (Ac-ETF[R8]VYWAQL[S5]SVS-NH2; staple 4-11), for which, in the assay with Caspase 3, the “caspase 0.3 μM” value was found to be 1, the “caspase 3 μM” value is 2, the “caspase 10 μM” value is given as 6 and the “caspase 30 μM” value was 17. Also, in the assay on SJSA-1 cells, the “6.25 μM % Lysed cells (1 h LDH)” value was 1%, the “25 μM % Lysed cells (1 h LDH)” value amounted to 0% and the “50 μM % Lysed cells (1 h LDH)” value is recorded as −1%.
